Test results taken from paper PMC3853024, “Aromatase inhibitor treatment with an intravaginal device and its effect on pre-ovulatory ovarian follicles in a bovine model” (Reproductive Biology and Endocrinology : RB&E, 2013).
Like-named read-outs stand apart in the source and are kept apart here.

Assays:
[1] = Pharmacokinetics of a letrozole-containing intravaginal device in heifers (plasma letrozole by LCMS/MS); type: in vivo, cattle (Hereford-cross beef heifers); settings: for half-life: read-out: Half-life (T1/2) (converted); for Cmax: read-out: Maximal concentration (Cmax); for MRT: read-out: Mean residence time (MRT); for clearance: read-out: Systemic clearance (ClS) (converted); for Vd/F: read-out: Volume of distribution (Vz/f)
Description: Intravaginal devices were prepared using a Cue-Mate spine (Bioniche Animal Health, Bellville, ON, Canada) assembled with two blank (progesterone-free) silicone pods that were coated with a gel-based vehicle containing letrozole or vehicle only (control). The vehicle contained the following (all ingredients % w/w): letrozole 10%, gelatin 20% (Gelatin type B, Fisher Scientific, Pittsburgh, PA, USA), polymer 65% (prepared by mixing distilled water 68%, Poloxamer 188 12% and Poloxamer 407 20%, both from Spectrum Chemical, New Brunswick, NJ, USA) and distilled water 5%.
Blood samples were collected by coccygeal venipuncture into 10 mL heparinized vacuum tubes (Becton Dickinson Vacutainer Systems, Franklin Lakes, NJ, USA). Samples were collected daily from pre-treatment follicular wave emergence (Day 0) to 12 days after the subsequent ovulation. In a subset of letrozole-treated animals (n=4), frequent blood samples were collected using an in-dwelling jugular catheter, as previously described, at the time of catheter placement and 0, 10, 20, 30 min, 1, 1.5, 2, 3, 4, 6, 8, 12 and 24 h after treatment for measurement of plasma letrozole concentration. Blood samples were centrifuged at 1500 × g for 20 min and plasma was separated and stored in plastic tubes at -20°C.
Plasma letrozole concentrations were quantified using liquid chromatography tandem mass spectrometry (LCMS/MS), as described. Briefly, letrozole was extracted from […] with […] of 0.1M ammonium acetate followed by the addition of 5 mL methyl t-butyl ether (MTBE) and vortexed for 15 s. The organic layer was removed and transferred to a fresh 15 mL plastic tube and dried by gentle nitrogen gas flow. The dried extract was reconstituted in 1 mL of 100% ethanol. Separation was accomplished by HPLC (Agilent 1200; Agilent, Santa Clara, CA, USA) fitted with an analytical column (50 × 2.1 mm, […] particle size; Betasil C18; Thermo Scientific, Waltham, MA, USA) operated at 35°C. Mass spectra were collected using a tandem mass spectrometer (SCIEX 3000; Applied Bioscience, Foster City, CA, USA) fitted with an electrospray ionisation source, operated in the negative ionisation mode. Quantification was performed using Analyst 1.4.1 software provided by SCIEX (Applied Bioscience). The minimum and maximum values along the standard curve were 0.25 and 500 ng/mL, respectively. The limit of quantification used in this method was 0.25 ng/mL and the mean recovery was 70%.
The following pharmacokinetic parameters were determined: Cmax (maximum observed plasma concentration of letrozole), tmax (time to reach Cmax), t1/2 (terminal elimination half-life), AUC (area under the plasma letrozole concentration-time curve from zero to infinity calculated as AUCtlast). The concentration of letrozole in plasma as a function of time (C–t) data for each heifer was analyzed by non-compartmental techniques using a computer modeling program (WinNonLin Standard Edition Version 2.1, Pharsight Corporation, Mountain View, CA, USA). Peak letrozole concentration in plasma (Cmax) and time to peak letrozole concentration (tmax) were determined using observed values. The apparent terminal rate constant (λ) was determined by linear regression of the last 6–8 points on the terminal phase of the logarithmic plasma concentration vs time curve. The area under the C–t curve until the final plasma sample (AUClast) was determined using the linear trapezoidal rule. The total area under the curve extrapolated to infinity (AUC0-∞) was calculated by adding the Clast obs/λ + AUClast. The terminal half-life (T1/2λ) was calculated as ln2 ⁄λ. The mean residence time (MRT) was calculated as the area under the moment curve extrapolated to infinity (AUMC0-∞) ⁄AUC0-∞. Systemic clearance (ClS) was determined using the dose divided by AUC0-inf. The apparent volume of distribution (Vλ/f) was calculated by clearance divided by λ. […]

plasma FSH = assay: Plasma FSH concentration (radioimmunoassay) in treated heifers; type: in vivo, cattle (Hereford-cross beef heifers); settings: n=15, P=0.1
Description: Heifers in which a CL was detected were given two luteolytic doses of PGF (12 h apart) and monitored by ultrasonography for ovulation. Five to eight days later, the two largest ovarian follicles were ablated by transvaginal ultrasound-guided follicular aspiration to synchronize follicular wave emergence which was expected to occur 1 to 1.5 days later. Prostaglandin (500 μg cloprostenol, Estrumate, Schering-Plough Animal Health, Pointe-Claire, QC, Canada) was given intramuscularly at 60 and 72 h after follicular ablation to induce regression of the CL and shift from a non-ovulatory to an ovulatory follicular wave. […] Devices were inserted on Day 1 and were kept in place until Day 7 or until ovulation was detected, which ever occurred first. […]
Plasma FSH concentrations were determined in duplicate using a double-antibody radioimmunoassay using NIDDK-anti-oFSH-1 primary antibody and expressed as USDA bovine FSH-Il units. […] All samples were analyzed in a single assay; the intra-assay coefficients of variation were 7.9 and 6.5%, for low (mean, 2.4 ng/mL) and high reference samples (mean 4.9 ng/mL), respectively. […]

[2] = Mean of 4 heifers, intravaginal device 1 g letrozole
[3] = female, Hereford-cross, bovine, plasma, 1 g, Heifer 1, intravaginal device 1 g letrozole
[4] = female, Hereford-cross, bovine, plasma, 1 g, Heifer 2, intravaginal device 1 g letrozole
[5] = female, Hereford-cross, bovine, plasma, 1 g, Heifer 3, intravaginal device 1 g letrozole
[6] = female, Hereford-cross, bovine, plasma, 1 g, Heifer 4, intravaginal device 1 g letrozole
[7] = female, Hereford-cross, bovine, plasma, 1 g, Mean of 4 heifers, intravaginal device 1 g letrozole

With N#Cc1ccc(C(c2ccc(C#N)cc2)n2cncn2)cc1 [Letrozole] the “Area under the curve (AUClast)” value ([1]; Heifer 1, intravaginal device 1 g letrozole) was 3538.1 hours x ng/mL, the “Area under the curve (AUClast)” value ([1]; Heifer 2, intravaginal device 1 g letrozole) was 2697.7 hours x ng/mL and the “Area under the curve (AUClast)” value ([1]; Heifer 3, intravaginal device 1 g letrozole) was 2583.1 hours x ng/mL. The “Area under the curve (AUClast)” value ([1]; Heifer 4, intravaginal device 1 g letrozole) was 1698.0 hours x ng/mL, the “Area under the curve (AUClast)” value [1, 2] was 2629.2 hours x ng/mL and the “Half-life (T1/2)” value [1, 2] was 33.3 h. The half-life [1, 3] was 35.1 h, the Cmax [1, 3] was 32.4 ng/mL and the MRT [1, 3] was 71.5 h. It also gave a clearance [1, 3] of 1.67 mL/min/kg, a Vd/F [1, 3] of 6.2 L/kg and a half-life [1, 4] of 20.4 h. For the same compound, the Cmax [1, 4] was 35.3 ng/mL, the MRT [1, 4] was 56.2 h and the clearance [1, 4] was 3.33 mL/min/kg. For the same compound, the Vd/F [1, 4] was 4.9 L/kg, the half-life [1, 5] was 41.9 h and the Cmax [1, 5] was 27.3 ng/mL. For the same compound, the MRT [1, 5] was 65.5 h, the clearance [1, 5] was 3.33 mL/min/kg and the Vd/F [1, 5] was 9.9 L/kg. For the same compound, the half-life [1, 6] was 35.7 h, the Cmax [1, 6] was 31.7 ng/mL and the MRT [1, 6] was 48.7 h. For the same compound, the clearance [1, 6] was 5 mL/min/kg, the Vd/F [1, 6] was 13.2 L/kg and the half-life [1, 7] was 33 h. For the same compound, the Cmax [1, 7] was 31.7 ng/mL, the MRT [1, 7] was 60.5 h and the clearance [1, 7] was 3.33 mL/min/kg. For the same compound, the Vd/F [1, 7] was 8.5 L/kg, the bioavailability ([1]; female, Hereford-cross, bovine, plasma, other: intravaginal device, 1 g, Mean, intravaginal device AUClast versus single iv injection AUClast (unpublished data), corrected by dose) was 16% and the Tmax ([1]; female, Hereford-cross, bovine, plasma, other: intravaginal device, 1 g, post-device insertion, n=4, read-out: Time of maximal concentration in plasma (tmax)) was 24 h. For the same compound, the “Duration of letrozole release from the intravaginal device” value ([1]; post-insertion, inferred from plasma letrozole concentration profile) was 24 h and the “Plasma FSH concentrations versus control” value (plasma FSH) was “tendency for lower”.
